Measured values from US12275718B2, “Small molecule inhibitors of galectin-3” (BRISTOL-MYERS SQUIBB COMPANY, priority 2018, dated 2025).

molecular target: His-tagged recombinant human Gal-3 (hGal-3) (Homo sapiens, UniProt P17931); assay: Gal-3 HTRF assay (His-tagged hGal-3 / B-ASF); type: binding; details: hGal-3 15 nM, B-ASF 15 nM, room temperature, three replicates
Experimental: • ASSAY BUFFER Composition: 25 mM HEPES, 100 mM NaCl, 0.005% Tween 20, 0.05% BSA prepared in sterile water (all reagents from Sigma) Controls: • Positive Control: 100% DMSO (1 μl)+His-tagged hGal-3 (20 μL)+B-ASF (20 μl)+Anti-His Terbium Antibody (5 μl)+Strep d2 Antibody (5 μl). • Negative Control: […] (1 μl)+His-tagged hGal-3 (20 μL)+Anti His Terbium Antibody (5 μl)+Strep d2 Aantibody (5 μl). Stocks Preparation:
PROTOCOL: The Gal-3 assays were performed in 384 white Opti plates in three replicates at room temperature with gentle shaking at 250-300 rpm From the original stocks, […] working stock concentrations of His-tagged recombinant human Gal-3 (hGal-3) and that of B-ASF were prepared. From the working stock, 20 μl of hGal-3 (15 nM) and 20 μl B-ASF (15 nM) were added to the plates. In Negative Control, only hGal-3 was added. A concentration range of 50× working stocks were prepared for the compounds in […]. Aliquots of 1 uL of the compounds were added to the wells and pre-incubated with 20 μl hGal-3 per well for 30 minutes Then 20 μl B-ASF were added and incubated for another 1 hour. To detect the signal, 5 μL (final conc. of 1.0 nM) terbium labelled Anti-His antibody was added and incubated for 30 min followed by adding 5 μL (final conc. of 20 nM) Streptavidin d2 and incubation for another 1 hour. The assay signal was detected using HTRF screen protocol (Excitation wavelength=340 nm, emission wavelength=615 nm/665 nm) on Envision 2104 Multilabel Reader. Data analysed using Toolset and Curve Master. Results are reported in the experimental section (IC50 in μM).

Sequence of His-tagged recombinant human Gal-3 (hGal-3) (P17931 whole entry): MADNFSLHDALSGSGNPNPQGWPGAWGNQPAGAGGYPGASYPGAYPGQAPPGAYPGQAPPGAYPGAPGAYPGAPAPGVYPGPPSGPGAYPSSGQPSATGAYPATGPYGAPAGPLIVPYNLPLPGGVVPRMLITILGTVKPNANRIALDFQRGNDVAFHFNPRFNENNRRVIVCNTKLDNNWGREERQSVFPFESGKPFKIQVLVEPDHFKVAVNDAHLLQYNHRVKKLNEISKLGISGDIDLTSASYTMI

SMILES	IC50 [nM]
Cc1nc(C2OC(CO)C(O)C(n3cc(-c4cc(F)c(F)c(F)c4)nn3)C2OC(=O)NCCCCNC(=O)OC2C(c3nc(C)nn3-c3cc(Cl)ccc3Cl)OC(CO)C(O)C2n2cc(-c3cc(F)c(F)c(F)c3)nn2)n(-c2cc(Cl)ccc2Cl)n1 [Example 18, (2R,3S,4R,5S,6S)-2-(1-(2,5-dichlorophenyl)-3-methyl-11H-1,2,4-triazol-5-yl)-5-hydroxy-6-(hydroxymethyl)-4-(4-(3,4,5-trifluorophenyl)-1H-1,2,3-triazol-1-yl)tetrahydro-2H-pyran-3-yl ((2S,3R,4S,5R,6R)-2-(1-(2,5-dichlorophenyl)-3-methyl-1H-1,2,4-triazol-5-yl)-5-hydroxy-6-(hydroxymethyl)-4-(4-(3,4,5-trifluorophenyl)-1H-1,2,3-triazol-1-yl)tetrahydro-2H-pyran-3-yl) butane-1,4-diyldicarbamate]	19
Cc1nc([C@H]2O[C@@H](CO)[C@@H](O)[C@@H](n3cc(-c4cc(F)c(Cl)c(F)c4)nn3)[C@@H]2OCC(=O)N(C)CCN(C)C(=O)CO[C@@H]2[C@@H](n3cc(-c4cc(F)c(Cl)c(F)c4)nn3)[C@@H](O)[C@@H](CO)O[C@H]2c2nc(C)nn2-c2cc(Cl)ccc2Cl)n(-c2cc(Cl)ccc2Cl)n1 [Example 21]	2
Cc1nc([C@H]2O[C@@H](CO)[C@@H](O)[C@@H](n3cc(-c4cc(F)c(Cl)c(F)c4)nn3)[C@@H]2OCC(=O)NCCCCCCCNC(=O)CO[C@@H]2[C@@H](n3cc(-c4cc(F)c(Cl)c(F)c4)nn3)[C@@H](O)[C@@H](CO)O[C@H]2c2nc(C)nn2-c2cc(Cl)ccc2Cl)n(-c2cc(Cl)ccc2Cl)n1 [Example 10]	10
Cc1nc([C@H]2O[C@@H](CO)[C@@H](O)[C@@H](n3cc(-c4cc(F)c(Cl)c(F)c4)nn3)[C@@H]2OCC(=O)NCCNC(=O)CO[C@@H]2[C@@H](n3cc(-c4cc(F)c(Cl)c(F)c4)nn3)[C@@H](O)[C@@H](CO)O[C@H]2c2nc(C)nn2-c2cc(Cl)ccc2Cl)n(-c2cc(Cl)ccc2Cl)n1 [Example 13]	1
Cc1nc([C@H]2O[C@@H](CO)[C@@H](O)[C@@H](n3cc(-c4cc(F)c(Cl)c(F)c4)nn3)[C@@H]2OCC(=O)N(C)CCCCN(C)C(=O)CO[C@@H]2[C@@H](n3cc(-c4cc(F)c(Cl)c(F)c4)nn3)[C@@H](O)[C@@H](CO)O[C@H]2c2nc(C)nn2-c2cc(Cl)ccc2Cl)n(-c2cc(Cl)ccc2Cl)n1 [Example 15]	5
Cc1nc([C@H]2O[C@@H](CO)[C@@H](O)[C@@H](n3cc(-c4cc(F)c(Cl)c(F)c4)nn3)[C@@H]2OCC(=O)NCCCCNC(=O)CO[C@@H]2[C@@H](n3cc(-c4cc(F)c(Cl)c(F)c4)nn3)[C@@H](O)[C@@H](CO)O[C@H]2c2nc(C)nn2-c2cc(Cl)ccc2Cl)n(-c2cc(Cl)ccc2Cl)n1 [Example 12]	1
Cc1nc([C@H]2O[C@@H](CO)[C@@H](O)[C@@H](n3cc(-c4cc(F)c(Cl)c(F)c4)nn3)[C@@H]2OCCCCCCCCO[C@@H]2[C@@H](n3cc(-c4cc(F)c(Cl)c(F)c4)nn3)[C@@H](O)[C@@H](CO)O[C@H]2c2nc(C)nn2-c2cc(Cl)ccc2Cl)n(-c2cc(Cl)ccc2Cl)n1 [Example 17, (2R,3R,4S,5R,6S)-4-(4-(4-chloro-3,5-difluorophenyl)-1H-1,2,3-triazol-1-yl)-5-((8-(((2R,3S,4R,5S,6S)-4-(4-(4-chloro-3,5-difluorophenyl)-1H-1,2,3-triazol-1-yl)-2-(1-(2,5-dichlorophenyl)-3-methyl-1H-1,2,4-triazol-5-yl)-5-hydroxy-6-(hydroxymethyl)tetrahydro-2H-pyran-3-yl)oxy)octyl)oxy)-6-(1-(2,5-dichlorophenyl)-3-methyl-1H-1,2,4-triazol-5-yl)-2-(hydroxymethyl)tetrahydro-2H-pyran-3-ol]	2000
Cc1nc([C@H]2O[C@@H](CO)[C@@H](O)[C@@H](n3cc(-c4cc(F)c(Cl)c(F)c4)nn3)[C@@H]2OCC(=O)NCCCCCNC(=O)CO[C@@H]2[C@@H](n3cc(-c4cc(F)c(Cl)c(F)c4)nn3)[C@@H](O)[C@@H](CO)O[C@H]2c2nc(C)nn2-c2cc(Cl)ccc2Cl)n(-c2cc(Cl)ccc2Cl)n1 [Example 11]	1
Cc1nc([C@H]2O[C@@H](CO)[C@@H](O)[C@@H](n3cc(-c4cc(F)c(Cl)c(F)c4)nn3)[C@@H]2OC(=O)NCCCNC(=O)O[C@@H]2[C@@H](n3cc(-c4cc(F)c(Cl)c(F)c4)nn3)[C@@H](O)[C@@H](CO)O[C@H]2c2nc(C)nn2-c2cc(Cl)ccc2Cl)n(-c2cc(Cl)ccc2Cl)n1 [Example 19, (2R,3S,4R,5S,6S)-4-(4-(4-chloro-3,5-difluorophenyl)-1H-1,2,3-triazol-1-yl)-2-(1-(2,5-dichlorophenyl)-3-methyl-1H-1,2,4-triazol-5-yl)-5-hydroxy-6-(hydroxymethyl)tetrahydro-2H-pyran-3-yl ((2S,3R,4S,5R,6R)-4-(4-(4-chloro-3,5-difluorophenyl)-1H-1,2,3-triazol-1-yl)-2-(1-(2,5-dichlorophenyl)-3-methyl-1H-1,2,4-triazol-5-yl)-5-hydroxy-6-(hydroxymethyl)tetrahydro-2H-pyran-3-yl) propane-1,3-diyldicarbamate]	110
Cc1nc([C@H]2O[C@@H](CO)[C@@H](O)[C@@H](n3cc(-c4cc(F)c(Cl)c(F)c4)nn3)[C@@H]2OCC(=O)NCCCCCCNC(=O)CO[C@@H]2[C@@H](n3cc(-c4cc(F)c(Cl)c(F)c4)nn3)[C@@H](O)[C@@H](CO)O[C@H]2c2nc(C)nn2-c2cc(Cl)ccc2Cl)n(-c2cc(Cl)ccc2Cl)n1 [Example 9]	6
Cc1nc([C@H]2O[C@@H](CO)[C@@H](O)[C@@H](n3cc(-c4cc(F)c(Cl)c(F)c4)nn3)[C@@H]2OCC(=O)NCCCCCNC(=O)CO[C@@H]2[C@@H](n3cc(-c4cc(F)c(Cl)c(F)c4)nn3)[C@@H](O)[C@@H](CO)O[C@H]2c2nc(C)nn2-c2cc(Cl)ccc2C(F)(F)F)n(-c2cc(Cl)ccc2C(F)(F)F)n1 [Example 8]	1
Cc1nc([C@H]2O[C@@H](CO)[C@@H](O)[C@@H](n3cc(-c4ccc(Cl)c(F)c4)nn3)[C@@H]2OCC(=O)NCCCCCNC(=O)CO[C@@H]2[C@@H](n3cc(-c4ccc(Cl)c(F)c4)nn3)[C@@H](O)[C@@H](CO)O[C@H]2c2nc(C)nn2-c2cc(Cl)ccc2Cl)n(-c2cc(Cl)ccc2Cl)n1 [Example 5]	10
Cc1nc([C@H]2O[C@@H](CO)[C@@H](O)[C@@H](n3cc(-c4cc(F)c(Cl)c(F)c4)nn3)[C@@H]2OCC(=O)N2CCCN(C(=O)CO[C@@H]3[C@@H](n4cc(-c5cc(F)c(Cl)c(F)c5)nn4)[C@@H](O)[C@@H](CO)O[C@H]3c3nc(C)nn3-c3cc(Cl)ccc3Cl)CC2)n(-c2cc(Cl)ccc2Cl)n1 [Example 23]	4
Cc1nc(C2OC(CO)C(O)C(n3cc(-c4cc(F)c(F)c(F)c4)nn3)C2OCC(=O)NCCCCCNC(=O)COC2C(c3nc(C)nn3-c3cc(Cl)ccc3Cl)OC(CO)C(O)C2n2cc(-c3cc(F)c(F)c(F)c3)nn2)n(-c2cc(Cl)ccc2Cl)n1 (stereo not drawn) [Example 2]	1
Cc1nc([C@H]2O[C@@H](CO)[C@@H](O)[C@@H](n3cc(-c4cc(F)c(Cl)c(F)c4)nn3)[C@@H]2OCC(=O)NCCCNC(=O)CO[C@@H]2[C@@H](n3cc(-c4cc(F)c(Cl)c(F)c4)nn3)[C@@H](O)[C@@H](CO)O[C@H]2c2nc(C)nn2-c2cc(Cl)ccc2C(F)(F)F)n(-c2cc(Cl)ccc2C(F)(F)F)n1 [Example 6]	1
Cc1nc([C@H]2O[C@@H](CO)[C@@H](O)[C@@H](n3cc(-c4cc(F)c(Cl)c(F)c4)nn3)[C@@H]2OCC(=O)N2CCN(C(=O)CO[C@@H]3[C@@H](n4cc(-c5cc(F)c(Cl)c(F)c5)nn4)[C@@H](O)[C@@H](CO)O[C@H]3c3nc(C)nn3-c3cc(Cl)ccc3Cl)CC2)n(-c2cc(Cl)ccc2Cl)n1 [Example 22]	4
Cc1nc([C@H]2O[C@@H](CO)[C@@H](O)[C@@H](n3cc(-c4cc(F)c(Cl)c(F)c4)nn3)[C@@H]2OCC(=O)NCCCCNC(=O)CO[C@@H]2[C@@H](n3cc(-c4cc(F)c(Cl)c(F)c4)nn3)[C@@H](O)[C@@H](CO)O[C@H]2c2nc(C)nn2-c2cc(Cl)ccc2C(F)(F)F)n(-c2cc(Cl)ccc2C(F)(F)F)n1 [Example 7]	1
Cc1nc([C@H]2O[C@@H](CO)[C@@H](O)[C@@H](n3cc(-c4ccc(Cl)c(F)c4)nn3)[C@@H]2OCCCCCCCCCCO[C@@H]2[C@@H](n3cc(-c4ccc(Cl)c(F)c4)nn3)[C@@H](O)[C@@H](CO)O[C@H]2c2nc(C)nn2-c2cc(Cl)ccc2Cl)n(-c2cc(Cl)ccc2Cl)n1 [Example 16, (2R,3R,4S,5R,6S)-4-(4-(4-chloro-3-fluorophenyl)-1H-1,2,3-triazol-1-yl)-5-((10-(((2R,3S,4R,5S,6S)-4-(4-(4-chloro-3-fluorophenyl)-1H-1,2,3-triazol-1-yl)-2-(1-(2,5-dichlorophenyl)-3-methyl-1H-1,2,4-triazol-5-yl)-5-hydroxy-6-(hydroxymethyl)tetrahydro-2H-pyran-3-yl)oxy)decyl)oxy)-6-(1-(2,5-dichlorophenyl)-3-methyl-1H-1,2,4-triazol-5-yl)-2-(hydroxymethyl)tetrahydro-2H-pyran-3-ol]	10000
